Tested on: hES cells
Test: Embryoid body (EB) and hemangioblast formation from hESC cultured with BIO
Assay type: cell-based, human
Method: Four hESC cell lines were used: H9 (derived from WiCell Research Institute) (Thomson et al. (1998)); CT2 (derived from University of Connecticut Stem Cell Core (Lin et al. (2010)); MA09 (an FDA approved, clinical-grade cell line derived at Advanced Cell Technology, Inc.) (Klimanskaya et al. (2006)); and ES03-Envy (Envy, a GFP-labeled line, derived at ES International) (Costa et al. (2005)). These cell lines were cultured on Matrigel (BD Biosciences, San Jose, Calif.) and cultured in TeSR1 medium, (Stem Cell Technologies, Vancouver, Canada), with or without adding of 0.05-0.2 μM of BIO (6-Bromoindirubin-3′-oxime (CAS 667463-62-9)).
hESC cells were then differentiated into EB cells and then enriched for HB as previously described (Lu et al. (2008); Lu et al. (2007)). 50-80% confluent hEs cell on the Matrigel plate were digested with Dispase (1 mg/ml for 5 to 10 minutes) and then washed with EB formation basal medium, HPGM (Lonza, Walksville, Md.), or STEMLINE I/II Hematopoietic Stell Cell Expansion Medium (Sigma, St. Louis, Mo.), or StemSpan H3000 (Stem Cell Technologies, Vancouver, Canada), or IMDM with 10% FBS, or DMEDM/F12 with 10% FBS. Cells were then cultured in EB formation medium supplemented with 50 ng/ml of VEGF (Peprotech) and 50 ng/ml of BMP4 (Stemgent) for 48 hours on ultra-low plate at a density of about 2-3 million cells/ml. After 48 hours, half the culture medium was replaced with fresh EB formation medium plus 25-50 ng/ml of bFGF.
Four days later, EB cells formed in the medium were harvested and dissociated into single cells with TrypLE (Invitrogen) at 37° C. for 2-3 minutes. Cells were washed and resuspended at 1-5 million cells/ml in EB formation basal medium. The single cell suspension were then mixed at 1:10 with Hemangioblast Growth Medium (Stem Cell Technologies, Vancouver, Canada). […]

**Q.** Which results are given for `O=C1Nc2cc(Br)ccc2/C1=C1/Nc2ccccc2/C1=N\O` [BIO, (2′Z,3′E)-6-Bromoindirubin-3′-oxime]?
**A.** size and yield of the EB culture (BIO in the mTesr1 medium): increase; total EB number increase (BIO in the mTesr1 medium): 3 folds; percentage of CD45 cell differentiation (indicator of hemangioblast differentiation efficiency) (BIO treatment compared to traditional mTesr1 medium): tripled
